target: T1, Glycylpeptide N-tetradecanoyltransferase (Candida albicans (strain SC5314 / ATCC MYA-2876) (Yeast), UniProt P30418); experiment: Inhibition of candida N-myristoyltransferase
T1 sequence (P30418 whole entry): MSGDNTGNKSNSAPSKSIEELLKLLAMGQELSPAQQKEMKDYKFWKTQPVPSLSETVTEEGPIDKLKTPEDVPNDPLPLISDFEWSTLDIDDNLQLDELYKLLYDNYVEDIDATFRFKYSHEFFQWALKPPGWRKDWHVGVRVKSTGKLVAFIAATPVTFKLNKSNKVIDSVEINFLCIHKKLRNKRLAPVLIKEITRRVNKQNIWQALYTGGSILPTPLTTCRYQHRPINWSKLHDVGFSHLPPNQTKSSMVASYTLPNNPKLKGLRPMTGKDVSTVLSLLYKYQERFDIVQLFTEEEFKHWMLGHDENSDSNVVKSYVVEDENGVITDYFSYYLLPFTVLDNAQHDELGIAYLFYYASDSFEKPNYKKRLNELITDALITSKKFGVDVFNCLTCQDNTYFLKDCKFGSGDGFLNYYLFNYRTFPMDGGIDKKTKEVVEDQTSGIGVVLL

In order of falling IC50:
1. CCOC(=O)c1oc2cccc(OCCNCc3cccnc3)c2c1C(C)C  83000 nM
2. CCOC(=O)c1cc2c(OCCNCc3cccnc3)cccc2o1  79000 nM
3. CCOC(=O)c1oc2cccc(OCCNC(C)(C)C)c2c1C  50000 nM
4. CCOC(=O)c1oc2cccc(OCCNCc3cccnc3)c2c1CC  10000 nM
5. CCOC(=O)c1oc2cccc(OCCNCc3cccnc3)c2c1C1CC1  4400 nM
6. CCOC(=O)c1oc2cccc(OCCCCNC(C)(C)C)c2c1C  4400 nM
7. CCOC(=O)c1oc2cccc(OCCNCc3ccccc3)c2c1C  3300 nM
8. Cc1c(C(=O)Nc2ccccc2)oc2cccc(OCCNCc3cccnc3)c12  2200 nM
9. CCOC(=O)c1oc2cccc(OCCCN3CCCCC3)c2c1C  1600 nM
10. CCOC(=O)c1oc2cccc(OCCCCCNC(C)(C)C)c2c1C  1500 nM
11. Cc1c(CCc2ccccc2)oc2cccc(OCCNCc3cccnc3)c12  1200 nM
12. CCOC(=O)c1oc2cccc(OCC(O)CNC(C)(C)C)c2c1C (stereo not drawn)  1200 nM
13. Cc1c(COc2cccc(F)c2)oc2cccc(OCCNCc3cccnc3)c12  110 nM
14. CCOC(=O)c1oc2cccc(OCCNCc3cccnc3)c2c1C  100 nM
15. Cc1c(COc2ccc(Cl)cc2)oc2cccc(OCCNCc3cccnc3)c12  73 nM
16. Cc1c(COc2ccccc2)oc2cccc(OCCNCc3cccnc3)c12  72 nM
17. Cc1c(COc2ccccc2C#N)oc2cccc(OCCNCc3cccnc3)c12  17 nM
18. Cc1c(COc2ccc(C#N)cc2)oc2cccc(OCCNCc3cccnc3)c12  9.4 nM
19. Cc1c(COc2ccccc2F)oc2cccc(OCCNCc3cccnc3)c12  8.3 nM
20. Cc1c(COc2ccc(F)cc2F)oc2cccc(OCCNCc3cccnc3)c12  7.5 nM
21. Cc1c(COc2ccc(F)cc2)oc2cccc(OCCNCc3cccnc3)c12  5.2 nM
22. COCc1ccc2oc(-c3oc4cccc(OCCNCc5cccnc5)c4c3C)cc2c1  3 nM
23. CC(=O)c1nccn1-c1oc2cccc(OCCNCc3cccnc3)c2c1C  1 nM

From ChEMBL document CHEMBL3045893, “QSAR analysis of N-myristoyltransferase inhibitors: antifungal activity of benzofurans” (Med Chem Res, 2009)
